From publication PMC3129046, “Engineering Laccases: In Search for Novel Catalysts” (Current Genomics, 2011)

Target: T1, LAC3 (Trametes sp. C30, UniProt Q6TH77)
T1 construct: lac3 cDNA in pYES-DEST52 under GAL1 promoter, secreted by Saccharomyces cerevisiae W303-1A; 501 aa, calc
T1 sequence (Q6TH77 24-524): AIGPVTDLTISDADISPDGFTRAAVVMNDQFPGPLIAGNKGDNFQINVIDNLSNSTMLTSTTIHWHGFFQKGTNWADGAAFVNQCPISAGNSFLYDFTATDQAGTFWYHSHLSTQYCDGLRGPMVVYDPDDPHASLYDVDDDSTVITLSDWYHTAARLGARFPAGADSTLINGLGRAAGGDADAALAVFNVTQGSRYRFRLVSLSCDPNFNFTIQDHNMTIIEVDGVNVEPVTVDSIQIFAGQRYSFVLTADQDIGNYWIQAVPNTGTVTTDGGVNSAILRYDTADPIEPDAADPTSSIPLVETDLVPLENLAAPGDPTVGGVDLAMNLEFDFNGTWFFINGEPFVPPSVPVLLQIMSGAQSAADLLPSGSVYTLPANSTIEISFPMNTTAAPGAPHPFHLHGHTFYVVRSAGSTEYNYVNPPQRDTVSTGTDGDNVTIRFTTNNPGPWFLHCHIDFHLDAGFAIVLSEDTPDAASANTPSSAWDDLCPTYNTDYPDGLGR
Experiment: brown halo on agar plate
Format: cell-based
Details: secreted recombinant enzyme, selective medium SGal URA

## COc1ccccc1O [2-methoxyphenol]
  brown halo on agar plate: brown coloration resulting from the oxidation of the substrate 2-methoxyphenol by laccases
